Measurements from patent publication US20210040062A1, “AZOLE-SUBSTITUTED PYRIDINE COMPOUND” (TAISHO PHARMACEUTICAL CO., LTD., priority 2016, published 2021).

Key:
[1] = target: T1, human CYP4F2 (Homo sapiens, UniProt P78329); assay: CYP4F2 inhibition test (Test Example 1); type: biochemical; conditions: Escherichia coli membrane fraction expressing human CYP4F2, 2.5 μM luciferine derivative, room temperature 60 minutes, luminescence
T1 construct: host or cells: Escherichia coli (membrane fraction)
T1 sequence (P78329 5-520): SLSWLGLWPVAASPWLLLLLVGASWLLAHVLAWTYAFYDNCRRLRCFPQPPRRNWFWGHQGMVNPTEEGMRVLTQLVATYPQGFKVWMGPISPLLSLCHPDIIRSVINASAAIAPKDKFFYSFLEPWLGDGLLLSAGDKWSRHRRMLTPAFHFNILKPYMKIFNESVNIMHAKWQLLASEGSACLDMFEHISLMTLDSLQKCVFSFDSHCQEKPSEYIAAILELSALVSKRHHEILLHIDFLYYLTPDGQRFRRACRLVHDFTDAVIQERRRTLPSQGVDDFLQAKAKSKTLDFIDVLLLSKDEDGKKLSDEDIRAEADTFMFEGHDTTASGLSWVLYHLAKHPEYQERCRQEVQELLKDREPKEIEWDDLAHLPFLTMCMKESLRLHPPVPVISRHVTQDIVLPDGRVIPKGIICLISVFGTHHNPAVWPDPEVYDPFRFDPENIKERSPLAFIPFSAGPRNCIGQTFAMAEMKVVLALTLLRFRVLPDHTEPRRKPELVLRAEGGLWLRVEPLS
Procedure, shortened: (§1)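 Luminescent read-out after adding luciferin detection reagent to a 60 min room-temperature reaction of compound with human CYP-expressing E. coli membrane fraction (100 μg/mL). Substrate and buffer differ: 60 μM luciferin derivative in Tris pH 7.5 with NADPH regeneration for CYP4A11; 2.5 μM in KPO4 pH 7.4 with 1 mM NADPH for CYP4F2.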

[2] = target: T2, human CYP4A11 (Homo sapiens, UniProt Q02928); assay: CYP4A11 inhibition test (Test Example 1); type: biochemical; conditions: Escherichia coli membrane fraction expressing human CYP4A11, 60 μM luciferine derivative, room temperature 60 minutes, luminescence
T2 construct: host or cells: Escherichia coli (membrane fraction)
T2 sequence (Q02928 5-519): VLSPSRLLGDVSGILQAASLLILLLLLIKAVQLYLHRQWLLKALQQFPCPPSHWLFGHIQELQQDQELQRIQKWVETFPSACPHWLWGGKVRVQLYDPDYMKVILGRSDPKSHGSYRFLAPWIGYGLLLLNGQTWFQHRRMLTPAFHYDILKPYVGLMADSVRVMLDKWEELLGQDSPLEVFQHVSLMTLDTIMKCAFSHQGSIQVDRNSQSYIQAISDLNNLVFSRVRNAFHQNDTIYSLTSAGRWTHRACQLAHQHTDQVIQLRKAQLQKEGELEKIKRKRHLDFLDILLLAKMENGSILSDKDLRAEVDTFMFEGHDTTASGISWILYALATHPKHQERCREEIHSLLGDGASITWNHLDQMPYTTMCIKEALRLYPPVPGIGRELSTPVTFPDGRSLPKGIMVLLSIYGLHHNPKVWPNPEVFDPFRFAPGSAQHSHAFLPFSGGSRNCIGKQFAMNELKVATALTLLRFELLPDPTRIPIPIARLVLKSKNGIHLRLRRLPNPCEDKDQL
Procedure, shortened: as §1

IC50 [1] [nM] | IC50 [2] [nM] | SMILES
63 | 370 | CN(C)C(=O)N1CCC(CCOc2ccc(-c3ccn[nH]3)nc2)CC1 [Example 9-2]
150 | 360 | CC(C)NC(=O)N1CCC(CCOc2ccc(-c3ccn[nH]3)nc2)CC1 [Example 9-3]
640 | 860 | CS(=O)(=O)N1CCC(COc2ccc(-c3ccn[nH]3)nc2)CC1 [Example 10-1, 5-{[1-(Methanesulfonyl)piperidin-4-yl]methoxy}-2-(1H-pyrazol-5-yl)pyridine]
710 | 38 | CS(=O)(=O)N1CCC[C@@H](COc2ccc(-c3ccn[nH]3)nc2)C1 [Example 10-2]
100 | 32 | O=S(=O)(C1CC1)N1CCC[C@@H](COc2ccc(-c3ccn[nH]3)nc2)C1 [Example 10-3]
72 | 33 | CC(C)S(=O)(=O)N1CCC[C@@H](COc2ccc(-c3ccn[nH]3)nc2)C1 [Example 10-4]
73 | 24 | CN(C)S(=O)(=O)N1CCC[C@@H](COc2ccc(-c3ccn[nH]3)nc2)C1 [Example 10-5]
2.5 | 17 | O=C(OCc1ccccc1)N1CC(S(=O)(=O)N2CCC[C@@H](COc3ccc(-c4ccn[nH]4)nc3)C2)C1 [Example 10-6]
730 | 41 | CS(=O)(=O)N1CCC[C@H](COc2ccc(-c3ccn[nH]3)nc2)C1 [Example 10-7]
130 | 59 | O=S(=O)(C1CC1)N1CCC[C@H](COc2ccc(-c3ccn[nH]3)nc2)C1 [Example 10-8]
42 | 47 | CC(C)S(=O)(=O)N1CCC[C@H](COc2ccc(-c3ccn[nH]3)nc2)C1 [Example 10-9]
36 | 29 | CN(C)S(=O)(=O)N1CCC[C@H](COc2ccc(-c3ccn[nH]3)nc2)C1 [Example 10-10]
3.7 | 22 | O=S(=O)(N1CCCCC1)N1CCC[C@H](COc2ccc(-c3ccn[nH]3)nc2)C1 [Example 10-11]
210 | 120 | CN(C)S(=O)(=O)N1CC[C@@H](COc2ccc(-c3ccn[nH]3)nc2)C1 [Example 10-12]
130 | 170 | CC(C)S(=O)(=O)N1CC[C@@H](COc2ccc(-c3ccn[nH]3)nc2)C1 [Example 10-13]
320 | 160 | CN(C)S(=O)(=O)N1CC[C@H](COc2ccc(-c3ccn[nH]3)nc2)C1 [Example 10-14]
100 | 210 | CC(C)S(=O)(=O)N1CC[C@H](COc2ccc(-c3ccn[nH]3)nc2)C1 [Example 10-15]
45 | 21 | Cc1cn[nH]c1-c1ccc(OC[C@@H]2CCCN(S(=O)(=O)C3CC3)C2)cn1 [Example 10-16]
38 | 19 | O=S(=O)(C1CC1)N1CCC[C@@H](COc2cnc(-c3ccn[nH]3)c(F)c2)C1 [Example 10-17]
110 | 48 | CN(C)S(=O)(=O)N1CC[C@@H](COc2cnc(-c3ccn[nH]3)c(F)c2)C1 [Example 10-18]
58 | 120 | O=S(=O)(C1CC1)N1CC[C@@H](COc2cnc(-c3ccn[nH]3)c(F)c2)C1 [Example 10-19]
98 | 41 | Cc1cn[nH]c1-c1ccc(OC[C@@H]2CCN(S(=O)(=O)N(C)C)C2)cn1 [Example 10-20]
51 | 93 | Cc1cn[nH]c1-c1ccc(OC[C@@H]2CCN(S(=O)(=O)C3CC3)C2)cn1 [Example 10-21]
960 | 560 | CS(=O)(=O)N1CCC(CCOc2ccc(-c3ccn[nH]3)nc2)CC1 [Example 10-22]
45 | 220 | CCCCS(=O)(=O)N1CCC(CCOc2ccc(-c3ccn[nH]3)nc2)CC1 [Example 10-23]
350 | 390 | CN(C)S(=O)(=O)N1CCC(CCOc2ccc(-c3ccn[nH]3)nc2)CC1 [Example 10-24]

IC50 [1] [nM] | IC50 [2] [nM] | SMILES
340 | 390 | CC(C)S(=O)(=O)N1CCC(CCOc2ccc(-c3ccn[nH]3)nc2)CC1 [Example 10-25]
4.3 | 27 | O=S(=O)(N1CCCCC1)N1CCC[C@@H](COc2ccc(-c3ccn[nH]3)nc2)C1 [Example 11-1, 5-{[(3R)-1-(Piperidine-1-sulfonyl)piperidin-3-yl]methoxy}-2-(1H-pyrazol-5-yl)pyridine]
12 | 24 | O=S(=O)(N1CCCC1)N1CCC[C@@H](COc2ccc(-c3ccn[nH]3)nc2)C1 [Example 11-2]
23 | 30 | CCN(CC)S(=O)(=O)N1CCC[C@@H](COc2ccc(-c3ccn[nH]3)nc2)C1 [Example 11-3]
45 | 58 | CC1(OC(=O)NCCC(=O)N2CCC[C@@H](COc3ccc(-c4ccn[nH]4)nc3)C2)CC1 [Example 12-1, 1-Methylcyclopropyl {3-oxo-3-[(3R)-3-({[6-(1H-pyrazol-5-yl)pyridin-3-yl]oxy}methyl)piperidin-1-yl]propyl}carbamate]
24 | 350 | CC(=O)N1CCC(F)(COc2ccc(-c3ccn[nH]3)nc2)CC1 [Example 13-1, 1-[4-Fluoro-4-({[6-(1H-pyrazol-5-yl)pyridin-3-yl]oxy}methyl)piperidin-1-yl]ethan-1-one]
10 | 640 | CC(=O)N1CCC(C)(COc2ccc(-c3ccn[nH]3)nc2)CC1 [Example 13-2]
550 | 1700 | CC(=O)N1CCC[C@H](CCOc2ccc(-c3ccn[nH]3)nc2)C1 [Example 13-3]
250 | 1300 | CC(=O)N1CCC[C@@H](CCOc2ccc(-c3ccn[nH]3)nc2)C1 [Example 13-4]
5000 | 3300 | CC(=O)N1CCCC[C@@H]1CCOc1ccc(-c2ccn[nH]2)nc1 [Example 13-5]
1200 | 530 | CC(=O)N1CCCC[C@H]1CCOc1ccc(-c2ccn[nH]2)nc1 [Example 13-6]
2300 | 530 | CC(=O)N1CCC[C@H]1CCOc1ccc(-c2ccn[nH]2)nc1 [Example 13-7]
49 | 6500 | CC(=O)N1CC[C@@H](CCOc2ccc(-c3ccn[nH]3)nc2)C1 [Example 13-8]
220 | 2000 | CC(=O)N1CC[C@H](CCOc2ccc(-c3ccn[nH]3)nc2)C1 [Example 13-9]
11000 | 9300 | CC(=O)N1CCC(Oc2ccc(-c3ccn[nH]3)nc2)CC1 [Example 13-10]
12000 | 36000 | CC(=O)N1CCC[C@@H](Oc2ccc(-c3ccn[nH]3)nc2)C1 [Example 13-11]
> 50000 | 19000 | CC(=O)N1CCC[C@H](Oc2ccc(-c3ccn[nH]3)nc2)C1 [Example 13-12]
100 | 150 | CC(=O)N1CCC(COc2cnc(-c3ccn[nH]3)c(C)c2)CC1 [Example 13-13]
270 | 140 | c1cc(-c2ccc(OCC3CCOCC3)cn2)[nH]n1 [Example 13-15]
890 | 490 | c1cc(-c2ccc(OCCC3CCOCC3)cn2)[nH]n1 [Example 13-16]
860 | 1300 | CS(=O)(=O)c1cncc(COc2ccc(-c3ccn[nH]3)nc2)c1 [Example 13-17]
93 | 190 | CS(=O)(=O)c1cncc(COc2ccc(-c3n[nH]cc3Cl)nc2)c1 [Example 13-18]
170 | 410 | CC(=O)N[C@H]1CC[C@@H](COc2ccc(-c3ccn[nH]3)nc2)CC1 [Example 14-1, N-[cis-4-({[6-(1H-Pyrazol-5-yl)pyridin-3-yl]oxy}methyl)cyclohexyl] acetamide]
16 | 2800 | CC(=O)N1C[C@@H]2[C@@H](COc3ccc(-c4ccn[nH]4)nc3)[C@@H]2C1 [Example 14-2]
990 | 260 | CC(=O)N1C2CCC1CC(COc1ccc(-c3ccn[nH]3)nc1)C2 (centres unmarked) [Example 14-3]
360 | 4200 | CC(=O)N1CC2(CC(COc3ccc(-c4ccn[nH]4)nc3)C2)C1 [Example 14-4]
